Here are results for four compounds from US12421249B2, “Inhibitors of APOL1 and methods of using same” (Vertex Pharmaceuticals Incorporated, priority 2020, dated 2025).

Bounds are passed on as bounds.

This assay addresses T1, APOL1 G1 (Homo sapiens, UniProt O14791, I384M/S342G).
T1 sequence (O14791 28-398 S342G/I384M): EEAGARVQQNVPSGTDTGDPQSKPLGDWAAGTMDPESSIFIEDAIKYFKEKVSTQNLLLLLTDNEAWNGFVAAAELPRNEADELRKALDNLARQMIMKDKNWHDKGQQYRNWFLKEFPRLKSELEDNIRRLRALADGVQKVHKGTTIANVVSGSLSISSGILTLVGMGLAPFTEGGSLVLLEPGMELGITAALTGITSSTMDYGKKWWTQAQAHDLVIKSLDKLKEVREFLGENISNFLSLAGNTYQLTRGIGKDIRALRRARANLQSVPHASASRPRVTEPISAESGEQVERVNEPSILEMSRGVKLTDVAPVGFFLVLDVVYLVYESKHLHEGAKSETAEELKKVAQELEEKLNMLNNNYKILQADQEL
The experiment in a line: MultiTox-Fluor Multiplex Cytotoxicity Assay in tet-inducible APOL1 G1 T-REx-HEK293 cells (clone G1 DC3.25). Also noted: expressed in transfected cells; host or cells: T-REx HEK293, pAAVS1-Puro-APOL1 G1, clone G1 DC3.25. The following applies: Multi-Tox Assay; IP50 = IC50 for cell proliferation; APOL1 variant cell line not given. The format is cell-based. The procedure:
The MultiTox-Fluor Multiplex Cytotoxicity Assay is a single-reagent-addition, homogeneous, fluorescence assay that measures the number of live and dead cells simultaneously in culture wells. The assay measures cell viability and cytotoxicity by detecting two distinct protease activities. The live-cell protease activity is restricted to intact viable cells and is measured using a fluorogenic, cell-permeant peptide glycyl-phenylalanylamino fluorocoumarin (GF-AFC) substrate. The substrate enters intact cells, where it is cleaved to generate a fluorescent signal proportional to the number of living cells. […] A second, cell-impermeant, fluorogenic peptide substrate (bis-AAF-R110 Substrate) is used to measure dead-cell protease that has been released from cells that have lost membrane integrity. A ratio of dead to live cells is used to normalize data.
Briefly, the tet-inducible transgenic APOL1 T-REx-HEK293 cell lines were incubated with 50 ng/mL tet to induce APOL1 in the presence of 3-(2-(4-fluorophenyl)-1H-indol-3-yl)-N-((3S,4R)-4-hydroxy-2-oxopyrrolidin-3-yl)propenamide at […], 0.0045, 0.0015, 0.0005 μM in duplicate for 24 hours in a humidified 37° C. incubator. The MultiTox reagent was added to each well and placed back in the incubator for an additional 30 minutes. The plate was read on the EnVision plate reader. A ratio of dead to live cells was used to normalize, and data was imported, analyzed and fit using Genedata Screener (Basel, Switzerland) software. Data was normalized using percent of control, no tet (100% viability), and 50 ng/mL tet treated (0% viability), and fit using Smart Fit. The reagents, methods, and complete protocol for the MultiTox assay are described below.
Human embryonic kidney (HEK293) cell lines containing a tet-inducible expression system (T-REx™; Invitrogen, Carlsbad, CA) and Adeno-associated virus site 1 pAAVS1-Puro-APOL1 G0 or pAAVS1-Puro-APOL1 G1 or pAAVS1-Puro-APOL1 G2 Clones G0 DC2.13, G1 DC3.25, and G2 DC4.44 were grown in a T-225 flask at ˜90% confluency in cell growth media (DMEM, 10% Tet-free FBS, 2 mM L-glutamine, 100 Units/mL penicillin-streptomycin, 5 μg/mL blasticidin S HCl, 1 μg/mL puromycin dihydrochloride). Cells were washed with DPBS and then trypsinized to dissociate from the flask. Media was used to quench the trypsin, cells were then pelleted at 200 g and resuspended in fresh cell assay media (DMEM, 2% Tet-free FBS, 2 mM L-glutamine, 100 Units/mL penicillin-streptomycin). Cells were counted and diluted to 1.17×10^6 cells/mL. 20 μL of cells (23,400/well) were dispensed to every well of a 384-well Poly-D-Lysine coated plate using the Multidrop dispenser. The plates were then incubated at room temperature for one hour.
Tetracycline is needed to induce APOL1 expression. 1 mg/mL tet stock in water was diluted to 250 ng/mL (5×) in cell assay media. 60 μL of cell assay media (no tet control) was dispensed in columns 1 and 24, and 60 μL of 5× tet was dispensed in 384-PP-round bottom plate in columns 2 to 23 with the Multidrop dispenser.
Assay ready plates from the Global Compound Archive were ordered using template 384_APOL1Cell_DR10n2_50 μM_v3. Compounds were dispensed at 200 nL in DMSO. The final top concentration was 10 μM with a 10 point 3-fold dilution in duplicate in the MultiTox assay.
20 μL were transferred from the 5× tet plate to the ARP and mixed, then 5 μL of 5× tet and the compounds were transferred to the cell plate and mixed using the Bravo. The cell plate was placed in the humidified 37° C. 5% CO2 incubator for 24 hours.
The MultiTox-Fluor Multiplex Cytotoxicity Assay was performed in accordance with the manufacturer's protocol. After cells were incubated with tet and compound for 24 hours, 25 μL of 1× MultiTox reagent was added to each well using the Multidrop dispenser; the plates were placed on a plate shaker (600 rpm) for 2 minutes, then centrifuged briefly and placed back in the 37° C. incubator for 30 minutes. […]
By IC50 is commonly meant the concentration that gives 50% inhibition. Read a low IC50 as inhibition by little substance. As for `Cn1cc([C@@H]2C[C@]3(C[C@H](c4ccccc4)N2)OC[C@@H](O)c2cc(Cl)sc23)nn1` [Compound 387, (2′S,4S,6′R, 7S)-2-chloro-2′-(1-methyltriazol-4-yl)-6′-phenyl-spiro[4,5-dihydrothieno[2,3-c]pyran-7,4′-piperidine]-4-ol], the IC50 is more than 500 nM.

`Cn1cc(C2CC3(CC(C(F)F)N2)OCCc2cc(Cl)sc23)nn1` (stereo not shown) [Compound 388, 2-chloro-2′-(difluoromethyl)-6′-(1-methyltriazol-4-yl)spiro[4,5-dihydrothieno[2,3-c]pyran-7,4′-piperidine]] gave a concentration for half-maximal inhibition (IC50) of more than 500 nM.

Consider `Cn1cc(C2CC3(CC(C(F)F)N2)OCCc2cc(C(F)(F)F)sc23)nn1` (stereo not shown) [Compound 389, 2′-(difluoromethyl)-6′-(1-methyltriazol-4-yl)-2-(trifluoromethyl)spiro[4,5-dihydrothieno[2,3-c]pyran-7,4′-piperidine]], for which the IC50 lay in the range of 50 to 500 nM.

For the compound `C[C@H]1C[C@@]2(C[C@@H](c3cn(C)nn3)N1)OC[C@@H](O)c1sc(C(F)(F)F)cc12` [Compound 390, (2′S,4S,6′S, 7R)-2′-methyl-6′-(1-methyltriazol-4-yl)-2-(trifluoromethyl)spiro[6,7-dihydrothieno[3,2-c]pyran-4,4′-piperidine]-7-ol], the IC50 was less than 50 nM.
